Assay results as given in patent US20110218343A1, “SMALL MOLECULE INHIBITORS OF ROTAMASE ENZYME ACTIVITY” (GLIAMED, INC., priority 1995, published 2011).

What was measured:
[1] = tested on: chick dorsal root ganglia (DRG) explants; assay: Neurite outgrowth in chick dorsal root ganglion cultures; format: cell-based; conditions: whole ganglion explants from ten day chick embryos; neurites counted 48 hours after drug treatment
Protocol: Dorsal root ganglia were dissected from chick embryos of ten day gestation. Whole ganglion explants were cultured on thin layer Matrigel-coated 12 well plates with Liebovitz L15 plus high glucose media supplemented with 2 mM glutamine and 10% fetal calf serum, and also containing 10 μM cytosine .β-D arabinofuranoside (Ara C) at 37° C. in an environment containing 5% CO2. Twenty-four hours later, the DRGs were treated with various concentrations of nerve growth factor, immunophilin ligands or combinations of NFG plus drugs. Forty-eight hours after drug treatment, the ganglia were visualized under phase contrast or Hoffman Modulation contrast with a Zeiss Axiovert inverted microscope. Photomicrographs of the explants were made, and neurite outgrowth was quantitated. Neurites longer than the DRG diameter were counted as positive, with total number of neurites quantitated per each experimental condition. Three to four DRGs are cultured per well, and each treatment was performed in duplicate.

[2] = target: FKBP (Homo sapiens, UniProt P62942); assay: FKBP rotamase (peptidyl-prolyl isomerase) inhibition, chymotrypsin-coupled assay; format: biochemical; conditions: apparent Ki; cis-trans isomerization of model substrate N-succinyl-Ala-Ala-Pro-Phe-p-nitroanilide, absorbance at 390 nm
FKBP, sequence (P62942 whole entry): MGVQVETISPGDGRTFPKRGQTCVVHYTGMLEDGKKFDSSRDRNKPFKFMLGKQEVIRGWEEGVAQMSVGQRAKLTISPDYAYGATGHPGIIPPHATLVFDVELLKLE

CCC(C)(C)C(=O)C(=O)N1CCC[C@H]1C(=O)OC/C=C/c1cc(OC)c(OC)c(OC)c1 [Example 7, 3-(3,4,5-Trimethoxyphenyl)-1-prop-2-(E)-enyl(2S)-1-(3,3-dimethyl-1,2-dioxopentyl)-2-pyrrolidinecarboxylate]
ED50 (Neurite Outgrowth in Chick DRG) [1]: 190 nM

CCC(C)(C)C(=O)C(=O)N1CCC[C@H]1C(=O)OC/C=C/c1ccc2c(c1)OCO2 [Example 9, 3-(4,5-Methylenedioxyphenyl)-1-prop-2-(E)-enyl(2S)-1-(3,3-dimethyl-1,2-dioxopentyl)-2-pyrrolidinecarboxylate]
ED50 (Neurite Outgrowth in Chick DRG) [1]: 75 nM

CCC(C)(C)C(=O)C(=O)N1CCC[C@H]1C(=O)OCCCc1cc(OC)c(OC)c(OC)c1 [Example 6, 3-(3,4,5-Trimethoxyphenyl)-1-propyl(2S)-1-(3,3-dimethyl-1,2-dioxopentyl)-2-pyrrolidinecarboxylate]
ED50 (Neurite Outgrowth in Chick DRG) [1]: 149 nM

CCC(C)(C)C(=O)C(=O)N1CCC[C@H]1C(=O)OC/C=C/c1ccc(Cl)c(Cl)c1 [Example 8, 3-(4,5-Dichlorophenyl)-1-prop-2-(E)-enyl(2S) -1-(3,3-dimethyl-1,2-dioxopentyl)-2-pyrrolidinecarboxylate]
ED50 (Neurite Outgrowth in Chick DRG) [1]: 850 nM

CCC(C)(C)C(=O)C(=O)N1CCC[C@H]1C(=O)OCCCc1ccccc1 [Example 4, 3-phenyl-1-propyl(2S)-1-(3,3-dimethyl-1,2-dioxopentyl)-2-pyrrolidinecarboxylate]
ED50 (Neurite Outgrowth in Chick DRG) [1]: 53 nM

CCOC(=O)[C@H](Cc1ccccc1)NC(=O)[C@@H]1CCCN1C(=O)C(=O)C(C)(C)CC [Example 24, 1-[1-(3,3-dimethyl-1,2-dioxopentyl)-L-proline]-L-phenylalanine ethyl ester]
Ki [2]: 9000 nM
